In patent US12421212B2, “Substituted benzenecarboxamides as IL-17A modulators” (DiCE Alpha, Inc., priority 2019, dated 2025):

Target: T1, IL-17A/A (Homo sapiens, UniProt Q16552)
T1 construct: purchased Genscript Z03228
T1 sequence (Q16552 24-155): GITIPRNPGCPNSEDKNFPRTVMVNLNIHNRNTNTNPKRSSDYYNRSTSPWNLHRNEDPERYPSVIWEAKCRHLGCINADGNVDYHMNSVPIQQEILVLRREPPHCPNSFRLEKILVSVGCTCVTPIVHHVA
Test: IL-17A/A HEK-Blue Cell Assay
Assay type: cell-based
Conditions: HEK-Blue IL-17A reporter cell line, SEAP readout at A630, 20 hours incubation with IL-17A/A, top concentration 10 uM, 1 uM or 0.3 uM; for IC50: read-out: IL-17A/A inhibition (pIC50) (converted)

| IC50 [µM] | SMILES | IL-17A/A inhibition (pIC50) |
| --- | --- | --- |
| – | CCC(=O)N[C@H](Cc1ccc(NC(=O)[C@H](Cc2cccc(Cl)c2)NC(=O)c2ccnn2CC)c(F)c1)C(=O)N1CCN(C)CC1 [Compound 726] | X2b (compounds were evaluated up to 1 uM and inhibited activity at 1 uM by less than 20%) |
| – | CCC(=O)N[C@H](Cc1ccc(NC(=O)[C@H](Cc2cc(C)cc(C)c2)NC(=O)c2ccnn2CC)c(F)c1)C(=O)N1CCN(C)CC1 [Compound 727] | X2b (compounds were evaluated up to 1 uM and inhibited activity at 1 uM by less than 20%) |
| – | CCC(=O)N[C@H](Cc1ccc(NC(=O)[C@@H](NC(=O)c2ccnn2CC)C2Cc3ccccc3C2)c(F)c1)C(=O)N1CCN(C)CC1 [Compound 728] | X2a (compounds were evaluated up to 1 uM and did not inhibit activity by >80%, however they showed some activity at 1 uM (less than 80% and more than 20%)) |
| – | CCC(=O)N[C@H](Cc1ccc(NC(=O)[C@H](CCC2CCCCC2)NC(=O)c2ccnn2CC)c(F)c1)C(=O)N1CCN(C)CC1 [Compound 729] | X2b (compounds were evaluated up to 1 uM and inhibited activity at 1 uM by less than 20%) |
| – | CCC(=O)N[C@H](Cc1ccc(NC(=O)[C@H](CC2CCCCC2)NC(=O)c2ccnn2CC)c(F)c1)C(=O)N1CCN(C)CC1 [Compound 730] | X2b (compounds were evaluated up to 1 uM and inhibited activity at 1 uM by less than 20%) |
| – | CCC(=O)N[C@H](Cc1ccc(NC(=O)[C@H](Cc2ccccc2Cl)NC(=O)C(F)(F)c2ccc(OC)nc2)c(F)c1)C(=O)N1CCN(C)CC1 [Compound 731] | X2b (compounds were evaluated up to 1 uM and inhibited activity at 1 uM by less than 20%) |
| – | CCC(=O)N[C@H](Cc1ccc(NC(=O)[C@@H](NC(=O)c2ccnn2CC)[C@H]2CC[C@H](C(F)(F)F)CC2)c(F)c1)C(=O)N1CCN(C)CC1 [Compound 732] | X2a (compounds were evaluated up to 1 uM and did not inhibit activity by >80%, however they showed some activity at 1 uM (less than 80% and more than 20%)) |
| – | CCC(=O)N[C@@H](C(=O)N1CCN(C)CC1)[C@@H](C)c1ccc(NC(=O)[C@@H](NC(=O)C(F)(F)C2CCNCC2)C2CCCCC2)c(F)c1 [Compound 733] | X2b (compounds were evaluated up to 1 uM and inhibited activity at 1 uM by less than 20%) |
| – | CCC(=O)N[C@@H](C(=O)N1CCN(C)CC1)[C@@H](C)c1ccc(NC(=O)[C@@H](NC(=O)C(F)(F)C2CCN(C)CC2)C2CCCCC2)c(F)c1 [Compound 734] | X2a (compounds were evaluated up to 1 uM and did not inhibit activity by >80%, however they showed some activity at 1 uM (less than 80% and more than 20%)) |
| – | CCC(=O)N[C@@H](C(=O)N1CCN(C)CC1)[C@@H](C)c1ccc(NC(=O)[C@@H](NC(=O)C(F)(F)C2CCN(CCO)CC2)C2CCCCC2)c(F)c1 [Compound 735] | X2a (compounds were evaluated up to 1 uM and did not inhibit activity by >80%, however they showed some activity at 1 uM (less than 80% and more than 20%)) |
| – | CCC(=O)N[C@@H](C(=O)N1CCN(C)CC1)[C@@H](C)c1ccc(NC(=O)[C@@H](NC(=O)c2ccnn2-c2ccccc2)C2CCCCC2)c(F)c1 [Compound 738] | X2a (compounds were evaluated up to 1 uM and did not inhibit activity by >80%, however they showed some activity at 1 uM (less than 80% and more than 20%)) |
| – | CCC(=O)N[C@@H](C(=O)N1CCN(C)CC1)[C@@H](C)c1ccc(NC(=O)[C@@H](NC(=O)CC2CCNCC2)C2CCCCC2)c(F)c1 [Compound 741] | X2b (compounds were evaluated up to 1 uM and inhibited activity at 1 uM by less than 20%) |
| – | CCC(=O)N[C@@H](C(=O)N1CCN(C)CC1)[C@@H](C)c1ccc(NC(=O)[C@H](Cc2ccccc2Cl)NC(=O)c2ccnn2CC)c(F)c1 [Compound 742] | X2a (compounds were evaluated up to 1 uM and did not inhibit activity by >80%, however they showed some activity at 1 uM (less than 80% and more than 20%)) |
| – | CCn1nccc1C(=O)N[C@H](C(=O)Nc1ccc([C@H](C)[C@@H](NC(=O)c2ccn(C)n2)C(=O)N2CCN(C)CC2)cc1F)C1CCCCC1 [Compound 744] | X2a (compounds were evaluated up to 1 uM and did not inhibit activity by >80%, however they showed some activity at 1 uM (less than 80% and more than 20%)) |
| – | CCn1nccc1C(=O)N[C@H](C(=O)Nc1ccc([C@H](C)[C@@H](NC(=O)c2ccc(CN(C)C)o2)C(=O)N2CCN(C)CC2)cc1F)C1CCCCC1 [Compound 745] | X2b (compounds were evaluated up to 1 uM and inhibited activity at 1 uM by less than 20%) |
| – | CCC(=O)N[C@H](Cc1ccc(NC(=O)[C@@H](NC(=O)c2ccnn2CC)C2CCCCC2)c(F)c1)C(=O)N1CCNCC1 [Compound 746] | X2b (compounds were evaluated up to 1 uM and inhibited activity at 1 uM by less than 20%) |
| – | CCC(=O)N[C@@H](C(=O)N1CCN(C)CC1)[C@@H](C)c1ccc(NC(=O)[C@@H](NC(=O)c2ccnn2CC)C2CCOCC2)c(F)c1 [Compound 747] | X2b (compounds were evaluated up to 1 uM and inhibited activity at 1 uM by less than 20%) |
| – | CCC(=O)N[C@H](Cc1ccc(NC(=O)[C@@H](NC(=O)c2ccnn2CC)C2CCCCC2)c(F)c1)C(=O)N1CCC(N(C)C)CC1 [Compound 748] | X2a (compounds were evaluated up to 1 uM and did not inhibit activity by >80%, however they showed some activity at 1 uM (less than 80% and more than 20%)) |
| – | CCC(=O)N[C@H](Cc1ccc(NC(=O)[C@@H](NC(=O)c2ccnn2CC)C2CCCCC2)c(F)c1)C(=O)NCCN(C)C [Compound 749] | X2a (compounds were evaluated up to 1 uM and did not inhibit activity by >80%, however they showed some activity at 1 uM (less than 80% and more than 20%)) |

| IC50 [µM] | SMILES | IL-17A/A inhibition (pIC50) |
| --- | --- | --- |
| – | CCC(=O)N[C@H](Cc1ccc(NC(=O)[C@@H](NC(=O)c2ccnn2CC)C2CCCCC2)c(F)c1)C(=O)N1CC2(CN(C)C2)C1 [Compound 750] | X2b (compounds were evaluated up to 1 uM and inhibited activity at 1 uM by less than 20%) |
| – | CCC(=O)N[C@H](Cc1ccc(NC(=O)[C@@H](NC(=O)c2ccnn2CC)C2CCCCC2)c(F)c1)C(=O)N1CC2(CCN(C)CC2)C1 [Compound 751] | X2b (compounds were evaluated up to 1 uM and inhibited activity at 1 uM by less than 20%) |
| – | CCC(=O)N[C@H](Cc1ccc(NC(=O)[C@@H](NC(=O)c2ccnn2CC)C2CCCCC2)c(F)c1)C(=O)NCCO [Compound 752] | X2b (compounds were evaluated up to 1 uM and inhibited activity at 1 uM by less than 20%) |
| – | CCC(=O)N[C@@H](C(=O)N1CCN(C)CC1)[C@@H](C)c1ccc(NC(=O)[C@@H](NC(=O)c2csc3cncnc23)C2CCCCC2)c(F)c1 [Compound 754] | X2b (compounds were evaluated up to 1 uM and inhibited activity at 1 uM by less than 20%) |
| – | CCC(=O)N[C@H](C(=O)NC1CCOCC1)[C@@H](C)c1ccc(NC(=O)[C@@H](NC(=O)c2ccnn2CC)C2CCCCC2)c(F)c1 [Compound 757] | X2b (compounds were evaluated up to 1 uM and inhibited activity at 1 uM by less than 20%) |
| – | CCC(=O)N[C@@H](C(=O)N1CCN(C)CC1)[C@@H](C)c1ccc(NC(=O)[C@@H](NC(=O)[C@@H]2CCCN2C)C2CCCCC2)c(F)c1 [Compound 758] | X2b (compounds were evaluated up to 1 uM and inhibited activity at 1 uM by less than 20%) |
| 0.1 to 10 | CCC(=O)N[C@H](Cc1ccc(NC(=O)[C@@H](NC(=O)c2ccnn2CC)C2CCCCC2)c(F)c1)C(=O)N1CCCN(C)CC1 [Compound 760] | – |
| 0.1 to 10 | CCC(=O)N[C@H](Cc1ccc(NC(=O)[C@@H](NC(=O)c2cncn2CC)C2CCCCC2)c(F)c1)C(=O)N1CCN(C)CC1 [Compound 761] | – |
| 0.1 to 10 | CCC(=O)N[C@H](Cc1ccc(NC(=O)[C@@H](NC(=O)c2ccnn2CC)C2CCCCC2)c(Cl)c1)C(=O)N1CCN(C)CC1 [Compound 763] | – |
| 0.1 to 10 | CCC(=O)N[C@H](Cc1ccc(NC(=O)[C@@H](NC(=O)c2conc2CNC(C)=O)C2CCCCC2)c(F)c1)C(=O)N1CCN(C)CC1 [Compound 764] | – |
| 0.1 to 10 | CCC(=O)N[C@H](Cc1ccc(NC(=O)[C@@H](NC(=O)c2cc(Cl)nn2C)C2CCCCC2)c(F)c1)C(=O)N1CCN(C)CC1 [Compound 765] | – |
| 0.1 to 10 | CCC(=O)N[C@H](Cc1ccc(NC(=O)[C@@H](NC(=O)c2ccnn2CC)C2CCCCC2)c(C)c1)C(=O)N1CCN(C)CC1 [Compound 766] | – |
| 0.1 to 10 | CCC(=O)N[C@@H](C(=O)N1CCN(C)CC1)[C@@H](C)c1ccc(NC(=O)[C@@H](NC(=O)c2ccc(CNC(=O)COCC(=O)O)s2)C2CCCCC2)c(F)c1 [Compound 767] | – |
| 0.1 to 10 | CCC(=O)N[C@@H](C(=O)O)[C@@H](C)c1ccc(NC(=O)[C@@H](NC(=O)c2ccnn2CC)C2CCCCCC2)c(F)c1 [Compound 768] | – |
| 0.1 to 10 | CCC(=O)N[C@@H](C(=O)N1CCN(C)CC1)[C@@H](C)c1ccc(NC(=O)[C@@H](NC(=O)Cc2ccc(CC(=O)O)cc2)C2CCCCC2)c(F)c1 [Compound 769] | – |
| 0.1 to 10 | CCC(=O)N[C@H](Cc1ccc(NC(=O)[C@@H](NC(=O)c2ccnn2CC)C2CCCCC2)c(F)c1)C(=O)N1CCN(C2COC2)CC1 [Compound 770] | – |
| – | CCC(=O)N[C@@H](C(=O)N1CCN(C)CC1)[C@H](C)c1ccc(NC(=O)[C@@H](NC(=O)c2ccnn2CC)C2CCCCC2)cc1 [Compound 771] | X1a (compounds were evaluated up to 10 uM and did not inhibit activity by >80%, however they showed some activity at 10 uM (less than 80% and more than 20%)) |
| – | CCC(=O)N[C@H](Cc1ccc(NC(=O)[C@@H](NC(=O)c2nccn2CC)C2CCCCC2)c(F)c1)C(=O)N1CCN(C)CC1 [Compound 772] | X1a (compounds were evaluated up to 10 uM and did not inhibit activity by >80%, however they showed some activity at 10 uM (less than 80% and more than 20%)) |
